Biological target: human α2δ-1 subunit of Cav2.2 calcium channel (Homo sapiens (Human), UniProt P54289)
Test: Binding assay to human α2δ-1 subunit of Cav2.2 calcium channel ([3H]-Gabapentin)
Details: binding to α2δ-1, [3H]-Gabapentin; read-out: Ki (nM) α2δ-1
Procedure: Binding Assay to Human α2δ-1 Subunit of Cav2.2 Calcium Channel.
NSB (non specific binding) was measured by adding 10 μM pregabalin. After 60 min incubation at 27° C., binding reaction was terminated by filtering through Multiscreen GF/C (Millipore) presoaked in 0.5% polyethyleneimine in Vacuum Manifold Station, followed by 3 washes with ice-cold filtration buffer containing 50 mM Tris-HCl, pH 7.4.
Filter plates were dried at 60° C. for 1 hour and 30 μl of scintillation cocktail were added to each well before radioactivity reading.

human α2δ-1 subunit of Cav2.2 calcium channel, sequence (P54289 25-1103): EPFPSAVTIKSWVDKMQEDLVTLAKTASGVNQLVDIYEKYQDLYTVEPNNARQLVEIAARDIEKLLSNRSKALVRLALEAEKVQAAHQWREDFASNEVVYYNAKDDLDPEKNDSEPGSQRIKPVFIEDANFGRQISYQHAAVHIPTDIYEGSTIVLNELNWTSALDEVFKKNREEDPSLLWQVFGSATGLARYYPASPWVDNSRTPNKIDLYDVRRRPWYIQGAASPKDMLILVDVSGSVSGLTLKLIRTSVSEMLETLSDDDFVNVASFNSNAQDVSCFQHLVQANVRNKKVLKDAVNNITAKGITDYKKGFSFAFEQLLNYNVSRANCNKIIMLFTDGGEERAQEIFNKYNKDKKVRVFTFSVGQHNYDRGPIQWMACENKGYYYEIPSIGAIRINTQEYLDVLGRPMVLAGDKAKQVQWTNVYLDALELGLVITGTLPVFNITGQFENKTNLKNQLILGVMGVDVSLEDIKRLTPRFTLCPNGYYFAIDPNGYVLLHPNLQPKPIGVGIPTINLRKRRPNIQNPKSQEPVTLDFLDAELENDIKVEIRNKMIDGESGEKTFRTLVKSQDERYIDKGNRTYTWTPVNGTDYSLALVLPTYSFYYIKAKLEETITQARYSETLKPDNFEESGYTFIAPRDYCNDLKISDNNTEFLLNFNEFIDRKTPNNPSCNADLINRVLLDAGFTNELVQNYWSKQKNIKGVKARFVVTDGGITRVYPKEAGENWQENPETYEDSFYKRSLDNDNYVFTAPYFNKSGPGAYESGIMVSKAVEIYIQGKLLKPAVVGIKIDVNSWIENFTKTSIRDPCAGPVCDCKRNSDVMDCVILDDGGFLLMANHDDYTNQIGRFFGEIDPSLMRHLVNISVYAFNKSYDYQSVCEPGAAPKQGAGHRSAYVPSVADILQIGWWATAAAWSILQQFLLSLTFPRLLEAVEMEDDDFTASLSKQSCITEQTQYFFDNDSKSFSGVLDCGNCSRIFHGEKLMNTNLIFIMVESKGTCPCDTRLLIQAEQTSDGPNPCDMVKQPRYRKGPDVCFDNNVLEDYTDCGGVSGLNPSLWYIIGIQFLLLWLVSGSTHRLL

Row | SMILES | Ki [nM]
1 | CCNc1ncc2c(n1)N(C)CCN(c1cccc(O[C@@H](CCN(C)C(=O)OC(C)(C)C)c3ccccc3)c1)C2=O [Example 71, tert-butyl (S)-(3-(3-(2-(ethylamino)-9-methyl-5-oxo-5,7,8,9-tetrahydro-6H-pyrimido[4,5-e][1,4]diazepin-6-yl)phenoxy)-3-phenylpropyl)(methyl) carbamate] | > 3000
2 | CNCC[C@H](OCc1cccc(N2CCN(C)c3nc(N)ncc3C2=O)c1)c1ccccc1 [Example 332, (S)-2-amino-9-methyl-6-(3-((3-(methylamino)-1-phenylpropoxy)methyl)phenyl)-6,7,8,9-tetrahydro-5H-pyrimido[4,5-e][1,4]diazepin-5-one] | > 3000
3 | CSc1ncc2c(n1)N(C)CCN(c1cccc(O[C@H](CCN(C)C(=O)OC(C)(C)C)c3ccccc3)c1)C2=O [Example 2, tert-butyl (R)-methyl(3-(3-(9-methyl-2-(methylthio)-5-oxo-5,7,8,9-tetrahydro-6H-pyrimido[4,5-e][1,4]diazepin-6-yl)phenoxy)-3-phenylpropyl) carbamate] | > 3000
4 | Cc1nnc(-c2cccc(N3CCN(C)c4nc(NCCc5ccccc5)ncc4C3=O)c2)o1 [Example 105, 9-methyl-6-(3-(5-methyl-1,3,4-oxadiazol-2-yl)phenyl)-2-(phenethylamino)-6,7,8,9-tetrahydro-5H-pyrimido[4,5-e][1,4]diazepin-5-one] | > 3000
5 | CCNc1cc2c(cn1)C(=O)N(c1cccc(COC(CCN(C)C(=O)OCC[Si](C)(C)C)c3cccs3)c1)CCN2C (stereo not shown) [Example 60, 2-(trimethyl-silyl)ethyl (3-((3-(8-(ethylamino)-1-methyl-5-oxo-1,2,3,5-tetrahydro-4H-pyrido[4,3-e] [1,4]diazepin-4-yl)benzyl)oxy)-3-(thiophen-2-yl)propyl) (methyl) carbamate] | > 3000
6 | CCNc1ncc2c(n1)N(C)CCN(c1cccc(-c3nnc(CN(C)Cc4ccccc4)o3)c1)C2=O [Example 255, 6-(3-(5-((benzyl(methyl)amino)methyl)-1,3,4-oxadiazol-2-yl)phenyl)-2-(ethylamino)-9-methyl-6,7,8,9-tetrahydro-5H-pyrimido[4,5-e][1,4]diazepin-5-one] | 100 to 500
7 | CSc1ncc2c(n1)N(C)CCN(c1cccc(OC(CNC(=O)OC(C)(C)C)c3ccccc3)c1)C2=O (stereo not shown) [Example 5, tert-butyl (2-(3-(9-methyl-2-(methylthio)-5-oxo-5,7,8,9-tetrahydro-6H-pyrimido[4,5-e][1,4]diazepin-6-yl)phenoxy)-2-phenylethyl) carbamate] | > 3000
8 | CSc1ncc2c(n1)N(C)CCN(c1cccc(COC(C)CCN(C)C(=O)OC(C)(C)C)c1)C2=O (stereo not shown) [Example 50, tert-butyl methyl(3-((3-(9-methyl-2-(methylthio)-5-oxo-5,7,8,9-tetrahydro-6H-pyrimido[4,5-e][1,4]diazepin-6-yl)benzyl)oxy)butyl) carbamate] | > 3000
9 | CCNc1ncc2c(n1)N(C)CCN(c1cccc(-n3cc(CN4CCC5(CC4)NCCc4ccccc45)nn3)c1)C2=O [Example 283, 6-(3-(4-((3,4-dihydro-2H-spiro[isoquinoline-1,4′-piperidin]-1′-yl)methyl)-1H-1,2,3-triazol-1-yl)phenyl)-2-(ethylamino)-9-methyl-6,7,8,9-tetrahydro-5H-pyrimido[4,5-e] [1,4]diazepin-5-one] | 100 to 500
10 | CCNc1ncc2c(n1)N(C)CCN(c1cccc(-n3cc(CCN(C)C(=O)OC(C)(C)C)nn3)c1)C2=O [Example 120, tert-butyl (2-(1-(3-(2-(ethylamino)-9-methyl-5-oxo-5,7,8,9-tetrahydro-6H-pyrimido[4,5-e][1,4]diazepin-6-yl)phenyl)-1H-1,2,3-triazol-4-yl)ethyl)(methyl) carbamate] | > 3000
11 | CCNc1ncc2c(n1)N(C)CCN(c1cccc(Cn3cc(CN(C)C(=O)OC(C)(C)C)nn3)c1)C2=O [Example 121, tert-butyl ((1-(3-(2-(ethylamino)-9-methyl-5-oxo-5,7,8,9-tetrahydro-6H-pyrimido[4,5-e][1,4]diazepin-6-yl)benzyl)-1H-1,2,3-triazol-4-yl)methyl)(methyl) carbamate] | > 3000
12 | CCNc1ncc2c(n1)N(C)CCN(c1cccc(O[C@H](CCN(C)C(=O)OC(C)(C)C)c3ccccc3)c1)C2=O [Example 70, tert-butyl (R)-(3-(3-(2-(ethylamino)-9-methyl-5-oxo-5,7,8,9-tetrahydro-6H-pyrimido[4,5-e][1,4]diazepin-6-yl)phenoxy)-3-phenylpropyl)(methyl) carbamate] | > 3000
13 | COc1cccc(N2CCN(C)c3nc(SC)ncc3C2=O)c1 [Example 32, 6-(3-methoxyphenyl)-9-methyl-2-(methylthio)-6,7,8,9-tetrahydro-5H-pyrimido[4,5-e][1,4]diazepin-5-one] | > 3000
14 | CCNc1ncc2c(n1)N(C)CCN(c1cccc(COC(CCNC)C(C)C)c1)C2=O (stereo not shown) [Example 189, 2-(ethylamino)-9-methyl-6-(3-(((4-methyl-1-(methylamino)pentan-3-yl)oxy)methyl)phenyl)-6,7,8,9-tetrahydro-5H-pyrimido[4,5-e][1,4]diazepin-5-one] | 500 to 3000
15 | CNCCC(Oc1ccccc1CN1CCN(C)c2nc(SC)ncc2C1=O)c1ccccc1 (stereo not shown) [Example 370, 9-methyl-6-(2-(3-(methylamino)-1-phenylpropoxy)benzyl)-2-(methylthio)-6,7,8,9-tetrahydro-5H-pyrimido[4,5-e][1,4]diazepin-5-one] | > 3000
16 | CNCCC(Oc1ccccc1CN1CCN(C)c2ncncc2C1=O)c1ccccc1 (stereo not shown) [Example 431, 9-methyl-6-(2-(3-(methylamino)-1-phenylpropoxy)benzyl)-6,7,8,9-tetrahydro-5H-pyrimido[4,5-e][1,4]diazepin-5-one] | > 3000
17 | CSc1ncc2c(n1)N(C)CCN(c1cccc(OC3CCN(C(=O)OC(C)(C)C)C3)c1)C2=O (stereo not shown) [Example 27, tert-butyl 3-(3-(9-methyl-2-(methylthio)-5-oxo-5,7,8,9-tetrahydro-6H-pyrimido[4,5-e][1,4]diazepin-6-yl)phenoxy) pyrrolidine-1-carboxylate] | > 3000
18 | CCOC(OCC)c1cn(-c2cccc(N3CCN(C)c4nc(SC)ncc4C3=O)c2)nn1 [Example 42, 6-(3-(4-(diethoxymethyl)-1H-1,2,3-triazol-1-yl)phenyl)-9-methyl-2-(methylthio)-6,7,8,9-tetrahydro-5H-pyrimido[4,5-e][1,4]diazepin-5-one] | > 3000
19 | CSc1ncc2c(n1)N(C)CCN(Cc1ccc(OC(CN(C)C(=O)OC(C)(C)C)c3ccccc3)cc1)C2=O (stereo not shown) [Example 63, tert-butyl methyl(2-(4-((9-methyl-2-(methylthio)-5-oxo-5,7,8,9-tetrahydro-6H-pyrimido[4,5-e][1,4]diazepin-6-yl)methyl)phenoxy)-2-phenylethyl)carbamate] | > 3000
20 | CCNc1ncc2c(n1)N(C)CCN(c1cccc(OC(CCN(C)C(=O)OC(C)(C)C)c3ccccc3)c1)C2=O (stereo not shown) [Example 69, tert-Butyl (3-(3-(2-(ethylamino)-9-methyl-5-oxo-5,7,8,9-tetrahydro-6H-pyrimido[4,5-e][1,4]diazepin-6-yl)phenoxy)-3-phenylpropyl)(methyl)carbamate] | > 3000
21 | CSc1ncc2c(n1)N(C)CCN(c1cccc(OCCCN(Cc3ccccc3)C(=O)OC(C)(C)C)c1)C2=O [Example 21, tert-butyl benzyl(3-(3-(9-methyl-2-(methylthio)-5-oxo-5,7,8,9-tetrahydro-6H-pyrimido[4,5-e][1,4]diazepin-6-yl)phenoxy)propyl) carbamate] | > 3000
22 | CCNc1cc2c(cn1)C(=O)N(c1cccc(COC(CCNC)c3cccs3)c1)CCN2C (stereo not shown) [Example 228, 8-(ethylamino)-1-methyl-4-(3-((3-(methylamino)-1-(thiophen-2-yl)propoxy)methyl)phenyl)-1,2,3,4-tetrahydro-5H-pyrido[4,3-e][1,4]diazepin-5-one] | 100 to 500
23 | CCNc1ncc2c(n1)N(C)CCN(c1cccc(-n3cc(CN4CCN(c5ccccc5)CC4)nn3)c1)C2=O [Example 280, 2-(ethylamino)-9-methyl-6-(3-(4-((4-phenylpiperazin-1-yl)methyl)-1H-1,2,3-triazol-1-yl)phenyl)-6,7,8,9-tetrahydro-5H-pyrimido[4,5-e] [1,4]diazepin-5-one] | 100 to 500
24 | CCNc1ncc2c(n1)N(C)CCN(c1cccc(C(=O)N3CCC(c4ccccc4)(N(C)C)CC3)c1)C2=O [Example 314, 6-(3-(4-(dimethylamino)-4-phenylpiperidine-1-carbonyl)phenyl)-2-(ethylamino)-9-methyl-6,7,8,9-tetrahydro-5H-pyrimido[4,5-e][1,4]diazepin-5-one] | > 3000
25 | CCNc1ncc2c(n1)N(C)CCN(c1ccc(O[Si](C)(C)C(C)(C)C)cc1)C2=O [Example 115] | > 3000
26 | COCCNc1ncc2c(n1)N(C)CCN(c1cccc(-c3nnc(C)o3)c1)C2=O [Example 99, 2-((2-methoxyethyl)amino)-9-methyl-6-(3-(5-methyl-1,3,4-oxadiazol-2-yl)phenyl)-6,7,8,9-tetrahydro-5H-pyrimido[4,5-e][1,4]diazepin-5-one] | > 3000
27 | CCNc1ncc2c(n1)N(C)CCN(c1cccc(COC(CCN(C)C(=O)OC(C)(C)C)c3ccccc3)c1)C2=O (stereo not shown) [Example 77, tert-butyl (3-((3-(2-(ethylamino)-9-methyl-5-oxo-5,7,8,9-tetrahydro-6H-pyrimido[4,5-e][1,4]diazepin-6-yl)benzyl)oxy)-3-phenylpropyl)(methyl) carbamate] | > 3000
28 | CNCC(Oc1cccc(N2CCN(C)c3nc(SC)ncc3C2=O)c1)c1ccccc1 (stereo not shown) [Example 155, 9-methyl-6-(3-(2-(methylamino)-1-phenylethoxy)phenyl)-2-(methylthio)-6,7,8,9-tetrahydro-5H-pyrimido[4,5-e][1,4]diazepin-5-one] | > 3000

Source: patent US10590140B2, “Tetrahydropyrimidodiazepine and dihydropyridodiazepine compounds for treating pain and pain related conditions” (ESTEVE PHARMACEUTICALS, S.A., priority 2016, dated 2020)
